Experimental findings from patent publication US11730731B2 (INVENTAGE LAB INC., priority 2021, dated 2023) are described below.

Experiment [1] concerns p65 NF-κB. The experiment can be described thus: Western blotting of NF-κB activity in LPS-treated SW982 cells. The experiment is classed as cell-based, human. Conditions: LPS 1 ug/ml, 0.5, 1, 10, 100 uM, 30 minutes, naltrexone effect at 1 uM. As to the method:
(§1) 1× Cell lysis buffer (Cell signaling, CA, USA) was mixed with protease and a phosphatase inhibitor and added to SW982 cells. After extracting the protein from the cells, the concentration was measured, and the same amount of protein was developed on an SDS-polyacrylamide gel, and transferred to an ECL nitrocellulose membrane (Amersham Pharmacia Biotech, Inc., Piscataway, N.J., USA) and blocked with nonfat dried milk for 1 hour. Thereafter, the reaction was performed with the first antibody (p65 NF-κB, phospho p65 NF-κB or calnexin; Cell signaling, CA, USA), while shaking at 4° C. for 24 hours. Then, after shaking and washing 3 times for 10 minutes with PBST buffer, the secondary antibody was incubated with anti-mouse or anti-rabbit HRP-conjugated secondary antibody for 1 hour at room temperature, and reacted with the protein band on the membrane using Supersignal west pico ECL solution (Thermo Fisher Scientific Inc.). The results were visualized with the Bio-Rad Gel Documentation system (Bio-Rad Laboratories, Hercules, Calif., USA), and the results were shown in FIG. 26.
as §1, with “phospho p65 NF-κB, p-ERK, ERK, p-JNK, JNK, p-p38, p38 or calnexin;” for “phospho p65 NF-κB or calnexin;”, “Scientific Inc.). […]” for “Scientific Inc.). The results were visualized with the Bio-Rad Gel Documentation system (Bio-Rad Laboratories, Hercules, Calif., USA), and the results were shown in FIG. 26.”

Experiment [2] relates to p65 NF-κB. In words: Western blotting of NF-κB activity in LPS-treated Raw 264.7 cells. The experiment is classed as cell-based, mouse. The note with it: LPS 1 ug/ml, 0.5, 1, 10, 100 uM, 30 minutes. For orientation: Immunoblotting shows a protein as a band on a membrane.
Experiment [3] deals with pro-inflammatory cytokines (TNF-α, IL-1β, IL-6, IL-17, iNOS) in SW982 cells. The experiment can be described thus: RT-qPCR of LPS-induced pro-inflammatory cytokine expression in SW982 cells. Conditions: LPS 1 ug/ml, 0.5, 1, 10, 100 uM, 6 hours. In general terms: Real-time PCR tracks product formation cycle by cycle.
Text: (§4) Lipopolysaccharide (LPS) was purchased from Sigma-Aldrich (St. Louis, Mo., USA).
In experiment [4] the test system is MAPKs (ERK, JNK, p38). In words: Western blotting of MAPKs activity in LPS-treated SW982 cells. The experiment is classed as cell-based, human. Conditions: LPS 1 ug/ml, 0.5, 1, 10, 100 uM, 30 minutes, naltrexone effect at 1 uM. As to the method:
(§2) Western blotting was performed in the same manner as in Example 6.3. The first antibody used at this time is an antibody against p-ERK, ERK, p-JNK, JNK, p-p38, p38 and calnexin (Cell signaling, CA, USA), and the secondary antibody is anti-mouse or anti-rabbit HRP-binding secondary antibody.
1× Cell lysis buffer (Cell signaling, CA, USA) was mixed with protease and a phosphatase inhibitor and added to SW982 cells. After extracting the protein from the cells, the concentration was measured, and the same amount of protein was developed on an SDS-polyacrylamide gel, and transferred to an ECL nitrocellulose membrane (Amersham Pharmacia Biotech, Inc., Piscataway, N.J., USA) and blocked with nonfat dried milk for 1 hour. Thereafter, the reaction was performed with the first antibody (p65 NF-κB, phospho p65 NF-κB, p-ERK, ERK, p-JNK, JNK, p-p38, p38 or calnexin; Cell signaling, CA, USA), while shaking at 4° C. for 24 hours. Then, after shaking and washing 3 times for 10 minutes with PBST buffer, the secondary antibody was incubated with anti-mouse or anti-rabbit HRP-conjugated secondary antibody for 1 hour at room temperature, and reacted with the protein band on the membrane using Supersignal west pico ECL solution (Thermo Fisher Scientific Inc.). The results were visualized with the Bio-Rad Gel Documentation system (Bio-Rad Laboratories, Hercules, Calif., USA), and the results are shown in FIG. 35.

Experiment [5] has as its system MAPKs (ERK, JNK, p38). In words: Western blotting of MAPKs activity in LPS-treated Raw 264.7 cells. Type of experiment: cell-based, mouse. The note with it: LPS 1 ug/ml, 0.5, 1, 10, 100 uM, 30 minutes. The procedure: as §2
Western blotting was performed in the same manner as in Example 7.4.

For experiment [6], the system named is pro-inflammatory cytokines (TNF-α, IL-1β, IL-6, IL-17, iNOS) in Raw 264.7 cells. In words: RT-qPCR of LPS-induced pro-inflammatory cytokine expression in Raw 264.7 cells. Conditions: LPS 1 ug/ml, 0.5, 1, 10, 100 uM, 6 hours.
Text: as §4
For experiment [7], the system named is experimental autoimmune encephalomyelitis (EAE). In words: EAE clinical score in experimental autoimmune encephalomyelitis mice (multiple sclerosis model). The experiment is classed as in vivo. The note with it: Example 5, EAE mouse; Q-DDS 1 mg/mouse sc once on day 3; Fytarex 3 mg/kg oral daily; Revia oral daily; mean±SEM.
Experiment [8] has the same test system. In words: Spinal cord histology, Luxol Fast Blue staining (demyelination score), EAE mice. Type of experiment: in vivo, mouse. The procedure:
(§3) After mouse euthanasia, spinal cord tissue was extracted, hematoxylin/eosin staining and Luxol Fast Blue staining were performed, and MBP-targeted immunohistochemical staining was performed, and histological evaluation was performed through blind evaluation.
On the 30th day which is the last day of the experiment, mouse was sacrificed, and the mouse spinal cord tissue was extracted and paraffin-embedded slides were prepared and then stained with Luxol Fast Blue, and the spinal cord tissue was photographed at 50 and 200 magnifications. In Luxol Fast Blue staining, myelin is stained from blue to green, and nerves are stained purple, and through this, the degree of demyelination was analyzed in the EAE model by confirming the neural structure in the spinal cord. Demyelination was analyzed according to the criteria described in Table 38 below and measured as a score.

The subject of experiment [9] is myelin basic protein (MBP). The experiment can be described thus: Immunohistochemistry staining of spinal cord with anti-myelin basic protein antibody, EAE mice. The experiment is classed as in vivo. The note with it: day 30, spinal cord IHC, Fytarex 3 mg/kg, Revia 1 mg/kg, Q-DDS 1 mg/mouse. As to the method:
as §3
On the 30th day which is the last day of the experiment, mouse was sacrificed, and the mouse spinal cord tissue was extracted and paraffin-embedded slides were prepared and then myelin basic protein (MBP) was stained immunohistochemically, and the spinal cord tissue was photographed at 50 and 200 magnifications. This is to confirm demyelination through immunohistochemical analysis using an antibody against myelin basic protein (MBP), a component of myelin.

Experiment [10] relates to experimental autoimmune encephalomyelitis (EAE). The experiment can be described thus: Spinal cord histology, hematoxylin/eosin staining (inflammation score), EAE mice. The experiment is classed as in vivo. The note with it: day 30, spinal cord, Fytarex 3 mg/kg, Revia 1 mg/kg, Q-DDS 1 mg/mouse. The procedure: as §3
On the 30th day which is the last day of the experiment, mouse was sacrificed, and the mouse spinal cord tissue was extracted and paraffin-embedded slides were prepared and then stained with hematoxylin/eosin, and the spinal cord tissue was photographed at 50 and 200 magnifications. Then, histological scores were measured according to the histological evaluation criteria of Table 36 below to evaluate the distribution of inflammatory cells.

Where a name gives a salt, the structure may show the parent alone.

As for `Oc1ccc2c3c1O[C@H]1[C@H](O)CC[C@@]4(O)[C@@H](C2)N(CC2CC2)CC[C@]314` [6β-naltrexol], the “phosphorylation of p65 NF-κB increased by LPS” value with p65 NF-κB [1] is recorded as “no inhibitory effect”. In the experiment on p65 NF-κB [2], the “p65 NF-κB phosphorylation increased by LPS” value is recorded as “inhibited”. Further, the “expression of cytokines (iNOS, IL-1β, IL-6, TNF-α) induced by LPS” value in experiment [3] and in experiment [6] was “suppressed at all concentrations” each time. Further, in the experiment with MAPKs (ERK, JNK, p38) [4], the “phosphorylation of MAPKs (ERK1/2, JNK, p38) increased by LPS” value was “no inhibitory effect”. In addition, in the experiment on MAPKs (ERK, JNK, p38) [5], the “phosphorylation of MAPKs (ERK1/2, JNK, p38)” value was “no inhibitory effect”.

With `CCCCCCCCc1ccc(CCC(N)(CO)CO)cc1` [Fytarex®, Fingolimod], the EAE clinical score in experiment [7] was determined as 1.67±0.13.

For the compound `O=C1CC[C@@]2(O)[C@H]3Cc4ccc(O)c5c4[C@@]2(CCN3CC2CC2)[C@H]1O5` [Revia ®], the “Demyelination score (histological score), Mean” value in experiment [8] (EAE mice, day 30, spinal cord, Luxol Fast Blue, Fytarex 3 mg/kg, Revia 1 mg/kg, Q-DDS 1 mg/mouse) is 0.61. Moreover, the “MBP positive area/total spinal area, Mean” value in experiment [9] came out at 58.23. Further, the “Inflammation score (histological score), Mean” value in experiment [10] is listed as 1.42.

Take `O=C1CC[C@@]2(O)[C@H]3Cc4ccc(O)c5c4[C@@]2(CCN3CC2CC2)[C@H]1O5` [Revia®, naltrexone hydrochloride]: the “demyelination histological score (Luxol Fast Blue, spinal cord)” value in experiment [8] (Example 5, EAE mouse, day 30, Q-DDS 1 mg/mouse sc once, Fytarex and Revia oral daily, mean±SEM) is “decrease in histological score and demyelination”.
